Values belong to the compound of their own block, whether it stands above or below them. Active and inactive are the calls of the source. The calls are words filed in the database; no cut-off is given here.
Experiments:
[1] = Inhibition of alpha-glucosidase (unknown origin) using PNPG as substrate assessed as p-nitrophenol release from substrate after 30 min; design: species or system Homo sapiens
[2] = tested on: Rattus norvegicus; assay: Antihyperglycemic activity in glucose treated Rattus norvegicus Sprague-Dawley (rat) assessed as reduction of postprandial blood glucose level at 50 mg/kg administered intragastrically immediately after glucose load after 30 min (reference value: 95.7 to 182.3 mg/dl); type: functional; conditions: route intragastric
[3] = tested on: Rattus norvegicus; assay: Antidiabetic activity in maltose loaded Rattus norvegicus Sprague-Dawley (rat) streptozotocin-induced diabetic model assessed as reduction of blood glucose level at 50 mg/kg administered intragastrically immediately after maltose load after 2 hr; type: functional, organism-based; design: dose 50 mg/kg
[4] = tested on: Rattus norvegicus; assay: Antihyperglycemic activity in maltose treated Rattus norvegicus Sprague-Dawley (rat) assessed as reduction of postprandial blood glucose level at 50 mg/kg administered intragastrically immediately after maltose load after 2 hr; type: functional, organism-based; design: dose 50 mg/kg
[5] = tested on: Rattus norvegicus; assay: Antidiabetic activity in Rattus norvegicus Sprague-Dawley (rat) streptozotocin-induced diabetic model assessed as reduction of blood glucose level at 50 mg/kg administered intragastrically after 30 min (reference value: 378.2 to 594.7 mg/dl); type: functional; conditions: route intragastric
[6] = tested on: Radical scavenging activity; assay: Antioxidant activity assessed as DPPH radical scavenging activity after 30 min; type: functional
[7] = tested on: Rattus norvegicus; assay: Antihyperglycemic activity in glucose treated Rattus norvegicus Sprague-Dawley (rat) assessed as reduction of postprandial blood glucose level at 20 mg/kg administered intragastrically immediately after glucose load after 30 min (reference value: 95.7 to 182.3 mg/dl); type: functional; conditions: route intragastric
[8] = tested on: Rattus norvegicus; assay: Antihyperglycemic activity in maltose treated Rattus norvegicus Sprague-Dawley (rat) assessed as reduction of postprandial blood glucose level at 20 mg/kg administered intragastrically immediately after maltose load after 2 hr; type: functional, organism-based; design: dose 20 mg/kg
[9] = tested on: Rattus norvegicus; assay: Antidiabetic activity in maltose loaded Rattus norvegicus Sprague-Dawley (rat) streptozotocin-induced diabetic model assessed as reduction of blood glucose level at 20 mg/kg administered intragastrically immediately after maltose load after 2 hr; type: functional, organism-based; design: dose 20 mg/kg
[10] = species on record: Homo sapiens; assay: Noncompetitive inhibition of alpha-glucosidase (unknown origin) using PNPG as substrate by Lineweaver-Burk plot analysis
[11] = tested on: Rattus norvegicus; assay: Antidiabetic activity in Rattus norvegicus Sprague-Dawley (rat) streptozotocin-induced diabetic model assessed as reduction of blood glucose level at 20 mg/kg administered intragastrically after 30 min (reference value: 378.2 to 594.7 mg/dl); type: functional; conditions: route intragastric

- IC50 [1]: 2380 µM
SMILES: COc1cc(OC)c(C=O)c(OC)c1 [2,4,6-TRIMETHOXYBENZALDEHYDE]

SMILES: O=C(O)c1cc(O)c(O)c(O)c1 [GALLIC ACID]
- IC50 [1]: 112 µM

SMILES: C[C@H]1O[C@H](O[C@H]2[C@H](O)[C@@H](O)[C@@H](O[C@H]3[C@H](O)[C@@H](O)C(O)O[C@@H]3CO)O[C@@H]2CO)[C@H](O)[C@@H](O)[C@@H]1N[C@H]1C=C(CO)[C@@H](O)[C@H](O)[C@H]1O (some centres undefined) [ACARBOSE]
- Activity [2]: 97.5 mg/dL
- Activity [3]: Active
- Activity [4]: Active
- Activity [5]: 372.1 mg/dL

- IC50 [6]: 71.4 µM
- IC50 [1]: 4.6 µM
- inhibition [10]: Active
SMILES: O=Cc1c(O)cc(O)cc1O [PHLOROGLUCINALDEHYDE]
- Activity [7]: 96.5 mg/dL
- Activity [8]: inactive
- Activity [9]: inactive
- Activity [11]: 367.9 mg/dL

SMILES: O=C(OC[C@H]1O[C@@H](OC(=O)c2cc(O)c(O)c(O)c2)[C@H](OC(=O)c2cc(O)c(O)c(O)c2)[C@@H](OC(=O)c2cc(O)c(O)c(O)c2)[C@@H]1OC(=O)c1cc(O)c(O)c(O)c1)c1cc(O)c(O)c(O)c1 [PENTAGALLOYL GLUCOSE]
- IC50 [1]: 0.39 µM

Reference: ChEMBL document CHEMBL3046183, “2,4,6-Trihydroxybenzaldehyde as a potent antidiabetic agent alleviates postprandial hyperglycemia in normal and diabetic rats” (Med Chem Res, 2011)
